Laboratory results from patent US20220274967A1, “BCAT MODULATION” (Icagen, LLC, priority 2019, published 2022).
pIC50: −log10 of the molar value. Like-named read-outs stand apart in the source and are kept apart here.

Tests used:
[1] = 3-HIB assay in vitro, direct MS assay of conditioned media; format: cell-based, human; conditions: GM00371 cells, read-out: 3HIB INHIBITION IC50 (μM) MEAN GM00371 cells Direct MS Assay
Experimental: Cell Plating: Cells (Coriell Institute GM00371 cells) were plated (96-well clear bottom sterile plate; Greiner 655098) at 10,000 cells/0.1 mL in Eagle's minimum essential medium (EMEM)/15% FBS (Gibco 16000-044) with a Combi dispenser in a cell culture hood and incubated at 37° C. and 5% CO2 overnight.
Compound Dilution: Compound were prepared as 33.3× intermediate dilution in DMSO in 96 well round polystyrene plates. For 30 μM final maximum start with 30 μL of 10 mM in DMSO. 10-12 1:3 serial dilutions were prepared from left to right (20 μL+40 μL DMSO). A 10× secondary dilution was prepare in EMEM by taking 7.5 μL 33.3× and transfer to replicate 96 well round polystyrene plates and then adding 242.5 μL EMEM A 1× final dilution in EMEM was prepared by taking 50 μL 10× dilution and transferring to replicate 96 well polypropylene assay block (Costar 3956) and adding 450 μL EMEM A control was prepared for maximal compound inhibition by taking 20 μL 10 mM Reference Compound A and adding 40 μL DMSO for a concentration of 3.3 mM To 7.5 μL of the 3.3 mM Reference Compound A solution and added 242.5 μL EMEM to make a 100 μM solution. The subsequent Reference Compound A solution was diluted with EMEM to achieve a final concentration of 10 μM. The structure of Reference Compound A is:
A control was prepared for maximal compound toxicity by taking 7.5 μL Reference Compound B and 242.5 μL EMEM to make […]. 50 μL of that 100 μM Reference Compound B solution was combined with 450 μL EMEM to achieve a concentration of 30 μM. The structure of Reference Compound B is
A DMSO Control was prepared by dilution 7.5 μL with 242.5 μL EMEM and taking 50 μL of the subsequent solution and diluting with 450 μL EMEM.
Compound Treatment: Media was aspirated from the cells and 100 μL of D-PBS (ThermoFisher 14190144) was added and then removed. 100 μL of diluted compound was added to the cells in the place and the cells were incubated at 37° C. and 5% CO2 for 24 hours.
Collection of Conditioned Media: For 3HIB MS detection: 20 μL conditioned media was removed from the cells and was transferred to a labeled replicate 96 well polypropylene assay plate (VWR 62408-946). And the plate was heat sealed and stored at −80° C.
3HIB Derivatization (Generalized SOP): The media collected for 3HIB MS detection was derivatized under the following conditions. Buffer: 0.1M 1-Ethyl-3-(3-dimethylaminopropyl)carbodiimide (EDC) dissolved in 0.1 M 2-(N-morpholino)ethanesulfonic acid ([…]) adjusted to pH 5.6. Buffer prep: weighed 10.6 g MES (Sigma #M-5287) per 500 mL HPLC grade H2O. Stored at 4° C.; 0.1M EDC: Weighed 1.971 g EDC (#E-1769) per 100 mL MES. Adjusted pH to 5.6 with ˜40 drops of 1N NaOH and stored at 4° C. Buffer has a short half-life should be used within two weeks.
Derivatization: To 20 μL sample was added 60 μL 5 uM 3HIB-4C13 internal standard followed by 20 μL EDC in MES and 100 μL MES. The plate was sealed and incubate at 50° C. for […] then centrifuged at 4000 rpm at 6° C. for 10 minutes. LC-MS analysis was then conducted and the data was processed using standard methods.

BCAT1 = target: T1, BCAT1 (Homo sapiens, UniProt P54687); experiment: BCAT1 enzyme inhibition (human), Glutamate Glo luminescence; format: biochemical
T1 sequence (P54687 1-386): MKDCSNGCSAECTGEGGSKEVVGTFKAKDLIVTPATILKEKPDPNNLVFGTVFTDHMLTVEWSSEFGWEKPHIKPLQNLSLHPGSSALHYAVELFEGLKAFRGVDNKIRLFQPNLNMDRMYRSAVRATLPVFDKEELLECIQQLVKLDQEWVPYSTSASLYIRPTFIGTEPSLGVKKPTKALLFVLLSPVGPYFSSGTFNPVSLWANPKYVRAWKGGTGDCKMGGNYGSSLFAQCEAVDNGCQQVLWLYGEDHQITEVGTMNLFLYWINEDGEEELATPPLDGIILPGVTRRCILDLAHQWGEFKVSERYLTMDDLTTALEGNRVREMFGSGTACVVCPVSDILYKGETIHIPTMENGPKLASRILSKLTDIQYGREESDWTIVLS
Outline: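 BCAT1 enzyme (0.06 ug/ml final) was preincubated with compound (3-0.0001 μM, 0.3% DMSO) for 10 or 60 min at room temperature in 50 mM Tris/0.05% TWEEN-20. The reaction then ran 10 min with 300 μM L-leucine and 250 μM alpha-ketoglutaric acid, was acid-quenched, and glutamate was read by luminescence. IC50 came from a 4-parameter fit, normalized to 10 μM VS558CSA inhibition.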

| SMILES | IC50 ([1]; Homo sapiens, 24 h) [µM] | pIC50 (BCAT1) | IC50 ([1]; 24 hours) [µM] |
| --- | --- | --- | --- |
| CNC(=O)c1cc2nc(-c3ccccn3)n([C@H]3CCC[C@@H](NC(=O)c4ccc(Br)s4)C3)c2cc1F [Compound 155] | 0.5 to 1 | 6.30 to 7.00 |  |
| CNC(=O)c1ccc2c(c1)nc(-c1ccccc1C)n2[C@H]1CCC[C@@H](NC(=O)c2ccc(Br)s2)C1 [Compound 135] | 0.1 to 0.5 | ≤ 6.00 |  |
| CNC(=O)c1ccc2c(c1)nc(-c1ccccc1C#N)n2[C@H]1CCC[C@@H](NC(=O)c2ccc(C#N)s2)C1 [Compound 139] |  | 6.30 to 7.00 | ≥ 1 |
| CNC(=O)c1ccc2c(c1)nc(-c1ccccc1C)n2[C@H]1CCC[C@@H](NC(=O)c2ccc(C#N)s2)C1 [Compound 134] | 0.5 to 1 | ≤ 6.00 |  |
| CNC(=O)c1ccc2c(c1)nc(-c1ccccc1C=O)n2[C@H]1CCC[C@@H](NC(=O)c2ccc(Br)s2)C1 [Compound 161] | 0.1 to 0.5 | 6.30 to 7.00 |  |
| CNC(=O)c1ccc2c(c1)nc(-c1ccccn1)n2[C@@H]1CCC[C@H](NC(=O)c2ccc(C#N)s2)C1 [Compound 112] | 0.5 to 1 | ≤ 6.00 |  |
| C#Cc1ccccc1-c1nc2cc(C(=O)NC)ccc2n1[C@H]1CCC[C@@H](NC(=O)c2ccc(Br)s2)C1 [Compound 151] | < 0.1 | 6.00 to 6.30 |  |
| CNC(=O)c1ccc2c(c1)nc(-c1ccccc1C#N)n2[C@H]1CCC[C@@H](NC(=O)c2ccc(Br)s2)C1 [Compound 137] |  | > 7.00 | 0.1 to 0.5 |
| CNC(=O)c1ccc2c(c1)nc(-c1ccccc1C#N)n2[C@H]1CCC[C@@H](NC(=O)c2ccc(C#N)s2)C1 [Compound 138] | ≥ 1 | 6.00 to 6.30 |  |
| CNC(=O)c1cc2nc(-c3ccccc3C#N)n([C@H]3CCC[C@@H](NC(=O)c4ccc(Br)s4)C3)c2cc1F [Compound 157] | < 0.1 | > 7.00 |  |
| CNC(=O)c1ccc2c(c1)nc(-c1cccc(F)c1)n2[C@H]1CCC[C@@H](NC(=O)c2ccc(Br)s2)C1 [Compound 154] | < 0.1 | ≤ 6.00 |  |
| CNC(=O)c1cc2nc(-c3ccccc3F)n([C@H]3CCC[C@@H](NC(=O)c4ccc(Br)s4)C3)c2cc1F [Compound 207] | < 0.1 | > 7.00 |  |
| CNC(=O)c1cc2nc(-c3ccccc3C)n([C@H]3CCC[C@@H](NC(=O)c4ccc(Br)s4)C3)c2cc1F [Compound 208] | ≥ 1 | 6.30 to 7.00 |  |
| CNC(=O)c1ccc2c(c1)nc(-c1ccccc1F)n2[C@H]1CCC[C@@H](NC(=O)c2ccc(Br)s2)C1 [Compound 145] | < 0.1 | 6.30 to 7.00 |  |
| CNC(=O)c1cc2nc(-c3ccccn3)n([C@H]3CCC[C@@H](NC(=O)c4ccc(Br)s4)C3)c2cn1 [Compound 292] | 0.1 to 0.5 | 6.30 to 7.00 |  |
| COC(=O)c1cc2nc(-c3ccccn3)n([C@@H]3CCC[C@H](NC(=O)c4ccc(Br)s4)C3)c2cn1 [Compound 291] | 0.1 to 0.5 | 6.30 to 7.00 |  |
| CNC(=O)c1ccc2c(c1)nc(-c1ccccc1C#N)n2[C@H]1CCC[C@@H](NC(=O)c2ccc(Br)s2)C1 [Compound 136] | < 0.1 | 6.30 to 7.00 |  |
| CNC(=O)c1ccc2c(c1)nc(-c1c(O)cccc1F)n2[C@H]1CCC[C@@H](NC(=O)c2ccc(Br)s2)C1 [Compound 184] | 0.1 to 0.5 | 6.30 to 7.00 |  |
| CNC(=O)c1ccc2c(c1)nc(-c1cccc(F)c1O)n2[C@H]1CCC[C@@H](NC(=O)c2ccc(Br)s2)C1 [Compound 163] | 0.1 to 0.5 | ≤ 6.00 |  |
| COC(=O)c1ccc2c(c1)nc(-c1ccccn1)n2[C@@H]1CCC[C@H](NC(=O)c2ccc(Br)s2)C1 [Compound 109] | 0.1 to 0.5 | ≤ 6.00 |  |
